We go through two compounds from patent publication US8569378B2, “p27 protein inducer” (Chugai Seiyaku Kabushiki Kaisha, priority 2007, dated 2013).

A word on the EC50: it is the concentration needed to bring the measured effect to its halfway point. Lower therefore signals greater potency.

For test [1], the system named is p27 protein. As to the kind of experiment: Detection of p27 protein by Western blotting in DU-145 cell lysate. The test is classed as cell-based. Particulars: DU-145 human prostate cancer cells; 0.3-30 μmol/L; 48 hours; FIG. 2. The procedure: (§1) The p27 protein-inducing activities of KIP-10 (the compound represented by formula (C)) and KIP-12 (the compound represented by formula (D)) were measured as follows.
(§2) Preparation of Cell Lysate:
(§3) NCI-H460 human non-small cell lung cancer cells (ATCC HTB-177), DU-145 human prostate cancer cells (ATCC HTB-81) or HCT116 human colon cancer cells (ATCC CCL-247) were plated in 6-well plates at 2×10^5 cells/well and incubated overnight. Then, the test substance was added to the medium to a final concentration of 0.3 μmol/L, 1 μmol/L, 3 μmol/L, 10 μmol/L or 30 μmol/L or was not added and the cells were incubated at 37° C. in 5% CO2 for 48 or 24 hours. The cells were washed with cold PBS(−), which was then completely removed. 0.35 mL of Cell Lysis Buffer (catalog no. 9803, Cell Signaling) which had been diluted to 1-fold concentration was added, and the mixture was allowed to stand on ice for 10 minutes. The Cell Lysis Buffer in which cells were lysed was collected together with cells and subjected to sonication (speed 1, duty 80) for 10 seconds. […]
(§4) The total protein concentration in the supernatant was determined with a DC Protein Kit (catalog no. 500-0122, Bio-Rad). […] After washing three times with TBS-T, it was immersed in ECL kit reagent (catalog no. RPN2132, Amersham) for 1 minute and the band was detected with a chemiluminescence reader. […]
Background: In western blotting, separated proteins are transferred to a membrane and probed.

In test [2] the test system is p27 protein. Description: Quantification of p27 protein by ELISA (p27 protein-inducing activity, EC50). The test is classed as cell-based, human. Particulars: NCI-H460 cells, 48 hours, p27 sandwich ELISA; Table 1-2. The protocol: The p27 protein-inducing activities of the compounds or salts listed in Tables 1-1, 1-2 and 2 below were measured as follows.
as §2
NCI-H460 human non-small cell lung cancer cells (ATCC HTB-177) were plated in 6-well plates at 2×10^5 cells/well and incubated overnight. Then, the test substance was added to the medium to a final concentration of 10000 nmol/L, 3000 nmol/L, 100 nmol/L, 30 nmol/L, 10 nmol/L, 3 nmol/L, 1 nmol/L, 0.3 nmol/L, 0.1 nmol/L, 0.03 nmol/L or 0.01 nmol/L and the cells were incubated at 37° C. in 5% CO2 for 48 hours. 150 μL of Cell Lysis Buffer (catalog no. 9803, Cell Signaling) which had been diluted to 1-fold concentration (1 mM PMSF was added immediately before use) was added, and the mixture was allowed to stand on ice for 10 minutes. The Cell Lysis Buffer in which cells were lysed was collected together with cells with a scraper and transferred to a new tube. It was centrifuged at 15000 rpm for 10 minutes at 4° C. and the supernatant was then transferred to a new tube.
Quantification by Sandwich ELISA:
Anti-p27 monoclonal antibody (catalog no. 71-9600, Zymed) was diluted to 5 μg/mL in 50 mM carbonate coating buffer (0.4 g/L NaCO3, 0.73 g/L NaHCO3 and 0.04 g/L NaN3 in distilled water), and it was then added at 50 μL/well and allowed to stand overnight at 4° C. to bind the antibody. After washing three times with PBS, 200 μL of blocking solution (0.2% I-Block in PBS) was added to each well. After 1 hour of incubation at room temperature, washing with PBS-T (0.05% Tween 20 in PBS) was performed three times. The sample and recombinant p27 protein standard were serially diluted in Cell Lysis Buffer (catalog no. 9803, Cell Signaling) which had been diluted to 1-fold concentration (1 mM PMSF was added immediately before use), and it was then added at 100 μL/well. After 1 hour of incubation at room temperature, washing with 200 μL of PBS-T was performed three times. HRP-labeled anti-p27 antibody (product no. 610243, BD Transdution Laboratories) was diluted 1:2500 (i.e. to 0.1 μg/mL) in 0.2% I-Block/0.05% PBS-T, and it was then added at 100 μL/well. After 1 hour of incubation at room temperature, washing with 200 μL of PBS-T was performed three times. Chromogenic substrate solution (TMB One Solution, catalog no. G7431, Promega) was added at 100 μL/well and allowed to develop a color reaction at room temperature. After stopping the reaction with 50 μL of 1N H2SO4, the absorbance at 450 nm was measured.
Calculation of EC50 Values:
A standard response curve was generated by plotting the amount of p27 protein against the concentration of the test substance. The basal level of response was defined as 0%, while the plateau level where the induction of p27 protein had been maximized was defined as 100%. Finally, the test substance concentration at which 50% induction was achieved was calculated, and it was defined as EC50.

For test [3], the system named is p27 protein. Description: Detection of p27 protein by Western blotting in NCI-H460 cell lysate. It counts as cell-based, human. Particulars: NCI-H460 cells; 0.3-30 μmol/L; KIP-10 48 hours, KIP-12 24 hours; FIGS. 1 and 3. The protocol: as §1, §2, §3, §4
Test [4] has as its system p27 protein. As to the kind of experiment: Detection of p27 protein by Western blotting in HCT116 cell lysate. The test is classed as cell-based. The conditions noted are these: HCT116 human colon cancer cells; 0.3-30 μmol/L; 24 hours; FIG. 4. The procedure: as §1, §2, §3, §4

The structures appear in SMILES notation.

In the case of `Cc1c(Cc2ccccc2N)c(=O)oc2cc(OC(=O)N(C)C)c(Cl)cc12` [KIP-10, dimethylcarbamic acid 3-(2-aminobenzyl)-6-chloro-4-methyl-2-oxo-2H-1-benzopyran-7-yl ester], the “p27 protein-inducing activity (Western blotting)” value in the test with p27 protein [1] and in the test with p27 protein [3] was “sufficiently high p27 protein-inducing activity” in each case. In the test on p27 protein [2], the EC50 turned out to be 6 µM.
Regarding `Cc1nn(Cc2ccc(C(=O)Nc3nc4ccccc4s3)cc2)c(C)c1[N+](=O)[O-]` [KIP-12], the “p27 protein-inducing activity (Western blotting)” value in the test with p27 protein [3] and in the test on p27 protein [4] was “sufficiently high p27 protein-inducing activity” in each case.
